Test results from paper PMC6328430, “Radiation dosimetry of [^68Ga]PSMA-11 in low-risk prostate cancer patients” (EJNMMI Physics, 2019).
Read-outs that look alike come from different tables or passages of the source.

What was measured:
[1] = cited from earlier work
[2] = PET/CT organ uptake and time-integrated activity coefficients after i.v. [^68Ga]PSMA-11; type: in vivo, human
Experimental: The PET/CT scanning was performed at the University Hospital of Umeå on a Discovery 690 [18] The first session, aimed to depict the fast tracer distribution, consisted of three head-to-thigh scans commencing at times 0, 10, and 20 min post-injection, followed by a head-to-toe whole-body scan approximately 30 min post-injection. The remaining three acquisitions were all head-to-toe scans, commencing at 90 min, 180 min, and 255 min post-injection. CT scans were acquired with 120 kV, 10 mA, 0.5 s/revolution, and 2.5-mm slice thickness, except for the whole-body scan at the first session which was acquired with 30 mA (Fig. 1) to provide adequate anatomical information. All PET scans were acquired using time-of-flight mode, with 60 s per bed position, and 11 slices bed overlap. PET images, corrected for attenuation and scatter, were reconstructed using the scanner implementation of the 3D iterative ordered subset expectation maximization (OSEM) reconstruction including time-of-flight (named VuePoint HD ViP) with 2 iterations, 24 subsets, 6.4-mm post-filter, and a 70-cm field-of-view, yielding a 128 × 128 matrix (5.5 × 5.5 × 3.27 mm^3 voxels). PET images were decay-corrected to start of each scan.
Urine was collected up to 4 h post-injection, and the total voided volume was weighed. From each voided volume, a 1-mL sample was weighed and radioactivity was measured using a well counter (NaI-scintillator), and the activity concentration in Bq/mL was calculated. The activity concentration and voided volume were used to calculate the total voided activity.
(§1) Volumes of interest (VOIs) were delineated for the kidneys, liver, lungs, spleen, salivary glands, and total body by a medical physicist and a radiologist using RayStation (RaySearch Laboratories, Stockholm, Sweden). Using the MICE Toolkit (Nonpi Medical AB, Umea, Sweden), the median VOI activity-concentration (Cmedian(t)) was extracted and used to calculate the fraction injected activity for each imaging session. For a specific VOI, the retention, U(t), in an organ with mass M [g], expressed as fraction of injected activity, is calculated as:1 Ut=Cmediant×M/A0 where A0 is the administered activity [Bq] and t is the time after administration. […] The remaining activity was assumed to be homogeneously distributed in the rest of the body, and the remaining activity in the body could therefore be calculated by subtracting the activities in the specific organ, blood, urinary bladder content, and urine from the decay-corrected administered activity.
(§2) The uptake was fitted to a bi-exponential or mono-exponential function of time post-injection using the software SAAM II (The Epsilon Group, Charlottesville, VA, USA). This function is used to calculate the time-integrated activity coefficient (TIAC), i.e., total number of decays per administered activity. […] The cumulated activity in the urinary bladder was calculated in a similar way, using measured data for urine plus bladder content. ICRP uses 3.5-h voiding interval for calculating absorbed doses from radiopharmaceuticals; thus, the activity in the bladder is zeroed at 3.5 and 7 h post-injection, before calculating the cumulated activity in accordance with Eq. 2.

[3] = Blood activity clearance from venous blood samples (bi-exponential fit); type: in vivo, human
Experimental: Venous blood samples were drawn at 45 min, 85 min, 175 min, and 245 min post-injection. The activity concentrations of these samples were measured in the abovementioned well counter. No metabolite analysis of the samples was performed, since this is beyond the scope of this dosimetry study.
as §2
TIACs for the organs used in the dose calculations can be seen in Table 1. […] The fitted blood curve was calculated on pooled normalized data and forced through the point 100% at time zero.

[4] = Absorbed organ dose and effective dose calculation (IDAC-Dose 2.1, ICRP 133/103; Monte Carlo for eye lenses); type: in vivo, human
Text: as §1, §2
The absorbed dose to the organs was calculated using the software IDAC-Dose 2.1 [22] which uses specific absorbed fractions for photons and electron from ICRP Publication 133 [19], […]
To calculate the dose to the lacrimal glands, spherical shape was assumed, with a mass of 0.7 g each, using the “sphere module” in IDAC-Dose 2.1. […] The lens of the eyes is a target organ in ICRP Publication 133 [19]; however, the lacrimal glands are not identified as source organs in the ICRP phantoms and an absorbed fraction is not presented in this report. Monte Carlo methods were therefore used to calculate absorbed fractions using the ICRP/ICRU voxel phantom for an adult. For the image activity concentration, the highest voxel was used, instead of the median. The reason for this is that the small size of the glands results in a significant “partial volume effect” [26].

[5] = cited from earlier work; remark: listed apart in the source
[6] = median of six patients, ICRP/ICRU voxel phantom organ mass
[7] = bi-exponential fit, pooled normalized data
[8] = six participants, sphere of 0.7 g

C[11C](=O)O [[^11C]Acetate]
Effective dose [1]: 0.0049 mSv/MBq

C[N+](C)(C[18F])CCO [[^18F]Choline]
Effective dose [1]: 0.01 mSv/MBq

O=C([O-])CN(CCN(CC(=O)[O-])Cc1cc(CCC(=O)NCCCCCC(=O)NCCCC[C@H](NC(=O)N[C@@H](CCC(=O)O)C(=O)O)C(=O)O)ccc1[O-])Cc1cc(CCC(=O)O)ccc1[O-].[68Ga+3].[OH3+] [[^68Ga]PSMA-11, ^68Ga-labeled Glu-NH-CO-NH-Lys(Ahx)-HBED-CC]
Accumulation in kidneys ([2]; intravenous injection, PET/CT): 7% | Accumulation in liver ([2]; intravenous injection, PET/CT): 15% | Accumulation in salivary glands ([2]; intravenous injection, PET/CT): 0.5% | Accumulation in spleen ([2]; intravenous injection, PET/CT): 2% | Liver TIAC, conventional method ([2]; measured organ volumes (liver mass 800–1200 g)): 0.10 h | Time-integrated activity coefficient, Blood, Median ([2]; median of six patients): 0.27 h | Time-integrated activity coefficient, Urinary bladder contents, Median ([2]; median of six patients, 3.5-h voiding interval): 0.11 h | Time-integrated activity coefficient, Kidneys, Median [2, 6]: 0.22 h | Time-integrated activity coefficient, Liver, Median [2, 6]: 0.23 h | Time-integrated activity coefficient, Spleen, Median [2, 6]: 0.021 h | Time-integrated activity coefficient, Salivary glands, Median ([2]; median of six patients, estimated directly from uptake data (Eq. 2)): 0.020 h | Time-integrated activity coefficient, Lacrimal glands, Median ([2]; median of six patients, highest voxel x factor 2, 0.7 g each): 0.00053 h | Time-integrated activity coefficient, Remainder, Median ([2]; median of six patients, rest of the body): 0.68 h | Time-integrated activity coefficient, Blood, P1 ([2]; patient P1): 0.32 h | Time-integrated activity coefficient, Kidneys, P1 ([2]; patient P1): 0.22 h | Time-integrated activity coefficient, Lacrimal glands, P1 ([2]; patient P1): 0.00075 h | Time-integrated activity coefficient, Liver, P1 ([2]; patient P1): 0.26 h | Time-integrated activity coefficient, Remainder, P1 ([2]; patient P1): 0.51 h | Time-integrated activity coefficient, Salivary glands, P1 ([2]; patient P1): 0.036 h | Time-integrated activity coefficient, Spleen, P1 ([2]; patient P1): 0.049 h | Time-integrated activity coefficient, Urinary bladder contents, P1 ([2]; patient P1): 0.12 h | Time-integrated activity coefficient, Blood, P2 ([2]; patient P2): 0.26 h | Time-integrated activity coefficient, Kidneys, P2 ([2]; patient P2): 0.27 h | Time-integrated activity coefficient, Lacrimal glands, P2 ([2]; patient P2): 0.00055 h | Time-integrated activity coefficient, Liver, P2 ([2]; patient P2): 0.15 h | Time-integrated activity coefficient, Remainder, P2 ([2]; patient P2): 0.76 h | Time-integrated activity coefficient, Salivary glands, P2 ([2]; patient P2): 0.020 h | Time-integrated activity coefficient, Spleen, P2 ([2]; patient P2): 0.012 h | Time-integrated activity coefficient, Urinary bladder contents, P2 ([2]; patient P2): 0.094 h | Time-integrated activity coefficient, Blood, P3 ([2]; patient P3): 0.36 h | Time-integrated activity coefficient, Kidneys, P3 ([2]; patient P3): 0.19 h | Time-integrated activity coefficient, Lacrimal glands, P3 ([2]; patient P3): 0.00038 h | Time-integrated activity coefficient, Liver, P3 ([2]; patient P3): 0.22 h | Time-integrated activity coefficient, Remainder, P3 ([2]; patient P3): 0.62 h | Time-integrated activity coefficient, Salivary glands, P3 ([2]; patient P3): 0.021 h | Time-integrated activity coefficient, Spleen, P3 ([2]; patient P3): 0.017 h | Time-integrated activity coefficient, Urinary bladder contents, P3 ([2]; patient P3): 0.13 h | Time-integrated activity coefficient, Blood, P4 ([2]; patient P4): 0.22 h | Time-integrated activity coefficient, Kidneys, P4 ([2]; patient P4): 0.23 h | Time-integrated activity coefficient, Lacrimal glands, P4 ([2]; patient P4): 0.00093 h | Time-integrated activity coefficient, Liver, P4 ([2]; patient P4): 0.23 h | Time-integrated activity coefficient, Remainder, P4 ([2]; patient P4): 0.78 h | Time-integrated activity coefficient, Salivary glands, P4 ([2]; patient P4): 0.017 h | Time-integrated activity coefficient, Spleen, P4 ([2]; patient P4): 0.026 h | Time-integrated activity coefficient, Urinary bladder contents, P4 ([2]; patient P4): 0.041 h | Time-integrated activity coefficient, Blood, P5 ([2]; patient P5): 0.25 h | Time-integrated activity coefficient, Kidneys, P5 ([2]; patient P5): 0.19 h | Time-integrated activity coefficient, Lacrimal glands, P5 ([2]; patient P5): 0.00052 h | Time-integrated activity coefficient, Liver, P5 ([2]; patient P5): 0.19 h | Time-integrated activity coefficient, Remainder, P5 ([2]; patient P5): 0.73 h | Time-integrated activity coefficient, Salivary glands, P5 ([2]; patient P5): 0.030 h | Time-integrated activity coefficient, Spleen, P5 ([2]; patient P5): 0.019 h | Time-integrated activity coefficient, Urinary bladder contents, P5 ([2]; patient P5): 0.16 h | Time-integrated activity coefficient, Blood, P6 ([2]; patient P6): 0.28 h | Time-integrated activity coefficient, Kidneys, P6 ([2]; patient P6): 0.26 h | Time-integrated activity coefficient, Lacrimal glands, P6 ([2]; patient P6): 0.0002 h | Time-integrated activity coefficient, Liver, P6 ([2]; patient P6): 0.31 h | Time-integrated activity coefficient, Remainder, P6 ([2]; patient P6): 0.63 h | Time-integrated activity coefficient, Salivary glands, P6 ([2]; patient P6): 0.017 h | Time-integrated activity coefficient, Spleen, P6 ([2]; patient P6): 0.022 h | Time-integrated activity coefficient, Urinary bladder contents, P6 ([2]; patient P6): 0.050 h | Biological half-life in blood, fast component [3, 7]: 6.5 min | Biological half-life in blood, slow component [3, 7]: 4.4 h | Fraction of blood activity cleared with the 6.5 min half-life ([3]; fast component): 91% | Fraction of blood activity cleared with the 4.4 h half-life ([3]; slow component): 9% | Liver dose factor, conventional method ([4]; TIAC derived with measured organ volumes (liver mass 800–1200 g)): 0.034 mGy/MBq | Effective dose per administration ([4]; administered activity of 2 MBq/kg to a person weighting 80 kg): 3.5 mSv | Effective dose ([4]; calculated for comparison using ICRP Publication 60): 0.022 mSv/MBq | Effective dose ([4]; median, ICRP Publication 103, male component only): 0.022 mSv/MBq | Absorbed dose coefficient, Colon wall, Median ([4]; six participants): 0.014 mGy/MBq | Absorbed dose coefficient, Colon wall, Range ([4]; six participants): 0.012–0.014 mGy/MBq | Absorbed dose coefficient, Endosteum, Median ([4]; six participants): 0.011 mGy/MBq | Absorbed dose coefficient, Endosteum, Range ([4]; six participants): 0.0095–0.011 mGy/MBq | Absorbed dose coefficient, Esophagus, Median ([4]; six participants): 0.014 mGy/MBq | Absorbed dose coefficient, Esophagus, Range ([4]; six participants): 0.011–0.015 mGy/MBq | Absorbed dose coefficient, Kidneys, Median ([4]; six participants): 0.24 mGy/MBq | Absorbed dose coefficient, Kidneys, Range ([4]; six participants): 0.20–0.28 mGy/MBq | Absorbed dose coefficient, Liver, Median ([4]; six participants): 0.053 mGy/MBq | Absorbed dose coefficient, Liver, Range ([4]; six participants): 0.038–0.071 mGy/MBq | Absorbed dose coefficient, Lungs, Median ([4]; six participants): 0.016 mGy/MBq | Absorbed dose coefficient, Lungs, Range ([4]; six participants): 0.013–0.017 mGy/MBq | Absorbed dose coefficient, Red bone marrow, Median ([4]; six participants): 0.015 mGy/MBq | Absorbed dose coefficient, Red bone marrow, Range ([4]; six participants): 0.014–0.015 mGy/MBq | Absorbed dose coefficient, Salivary glands, Median ([4]; six participants): 0.089 mGy/MBq | Absorbed dose coefficient, Salivary glands, Range ([4]; six participants): 0.074–0.15 mGy/MBq | Absorbed dose coefficient, Skin, Median ([4]; six participants): 0.0067 mGy/MBq | Absorbed dose coefficient, Skin, Range ([4]; six participants): 0.0059–0.0069 mGy/MBq | Absorbed dose coefficient, Spleen, Median ([4]; six participants): 0.046 mGy/MBq | Absorbed dose coefficient, Spleen, Range ([4]; six participants): 0.030–0.10 mGy/MBq | Absorbed dose coefficient, Stomach wall, Median ([4]; six participants): 0.015 mGy/MBq | Absorbed dose coefficient, Stomach wall, Range ([4]; six participants): 0.015–0.017 mGy/MBq | Absorbed dose coefficient, Testes, Median ([4]; six participants): 0.0087 mGy/MBq | Absorbed dose coefficient, Testes, Range ([4]; six participants): 0.0074–0.0089 mGy/MBq | Absorbed dose coefficient, Thyroid, Median ([4]; six participants): 0.010 mGy/MBq | Absorbed dose coefficient, Thyroid, Range ([4]; six participants): 0.0090–0.010 mGy/MBq | Absorbed dose coefficient, Urinary bladder wall, Median ([4]; six participants): 0.057 mGy/MBq | Absorbed dose coefficient, Urinary bladder wall, Range ([4]; six participants): 0.028–0.084 mGy/MBq | Absorbed dose coefficient, Eye lenses, Median ([4]; six participants, Monte Carlo methods for lacrimal gland contribution): 0.0051 mGy/MBq | Absorbed dose coefficient, Lacrimal glands, Median [4, 8]: 0.11 mGy/MBq | Absorbed dose coefficient, Lacrimal glands, Range [4, 8]: 0.043–0.2 mGy/MBq | Kidney dose ([5]; Afshar-Oromieh et al. ref 15): 0.262 mGy/MBq | Kidney dose ([5]; Demirci et al. ref 16): 0.246 mGy/MBq | Lacrimal glands absorbed dose ([5]; unit density sphere model, Demirci et al. ref 16): 0.04 ± 0.008 mGy/MBq
